Data from patent US8114864B2, “Macrolide antibiotics and their use for medical purposes” (Helmholtz-Zentrum Fuer Infektionsforschung, priority 2006, dated 2012).
Values after ≈ are worked out from the molar mass of the structure shown. Like-named read-outs stand apart in the source and are kept apart here.

Experiments:
[1] = tested on: Mycobacterium tuberculosis test strain H375RV; test: Growth inhibition of Mycobacterium tuberculosis in liquid culture; format: cell-based; conditions: for antibiotic activity against Mycobacterium tuberculosis: clinical isolates and reference strains
Protocol: Using the standard Mycobacterium tuberculosis test strain H375RV, it could be shown that thuggacin A inhibited growth at or below 8 μg/mL in liquid culture.
For tests of the biological activity, preferably aqueous compositions of the thuggacins according to the present invention were used separately in an aqueous composition comprising 10 mM acetic acid for stabilisation.

[2] = tested on: Micrococcus luteus, Mycobacterium phlei and M. chitae; test: MIC in liquid culture
[3] = tested on: Corynebacterium fascians; test: Agar diffusion test; format: cell-based; conditions: Rhodococcoides fascians, read-out: Diameter of inhibition zone
Protocol: (§1) In an agar diffusion test using 10 μg of the compound per disc, the following inhibition was found: […]

[4] = tested on: Micrococcus luteus; test: Agar diffusion test; format: cell-based; conditions: read-out: Diameter of inhibition zone
Protocol: as §1

[5] = tested on: Mycobacterium phlei; test: Agar diffusion test; format: cell-based; conditions: Mycolicibacterium phlei, read-out: Diameter of inhibition zone
Protocol: as §1

[6] = tested on: Micrococcus luteus; test: Inhibition of oxygen demand/consumption of Micrococcus luteus in liquid culture; format: cell-based; conditions: initial studies
[7] = tested on: NADH oxidation of crude cytoplasmic membrane fractions; test: Inhibition of NADH oxidation of crude cytoplasmic membrane fractions; format: biochemical; conditions: initial studies using Micrococcus luteus
[8] = Stability / rearrangement of thuggacins in protic solvent; format: physicochemical; conditions: for stability in aqueous solution: optionally comprising a C1-C2 alcohol
Protocol: Starting from 8 mg/mL thuggacin A, an equilibrium of thuggacin A, thuggacin-B and thuggacin C could be found after approximately 96 hours. In general, the reaction time for reaching the equilibrium can vary over a broad range, e.g. from 1 to 20 days. Re-crystallized thuggacin of high purity is nearly stable, i.e. undergo rearrangement only very slowly. Thuggacin A having a lower purity will undergo rearrangement to thuggacin B and C with increased reaction rates. Similar stabilities have been observed for the rearrangement reaction of thuggacin cmc-A to thuggacin cmc-B and cmc-C.

[9] = tested on: mouse fibroblast cells (L929); test: Sensitivity of cultivated mouse fibroblast cells

C/C=C(C)/C=C(\C)C(O)C(C)C(O)C(O)C1C/C=C(C)\C=C\C(O)CC(O)C(C)c2nc(cs2)/C=C(\CCCCCC)C(=O)O1 (centres unmarked) [13-methyl thuggacin A]
antibiotic activity against Mycobacterium tuberculosis [1]: antibiotic activity

C/C=C(C)/C=C(\C)CC(C)C(O)C1OC(=O)/C(C)=C/c2csc(n2)C(CO)C(O)CC(O)/C=C/C=C\CC1O (centres unmarked) [thuggacin cmc-B]
relative effectiveness in liquid culture MIC experiments [2]: most effective

C/C=C(C)/C=C(\C)C(O)C(C)C1OC(=O)/C(CCCCCC)=C/c2csc(n2)C(C)C(O)CC(O)/C=C/C=C\CC(O)C1O (centres unmarked) [thuggacin C]
antibiotic activity against Mycobacterium tuberculosis [1]: antibiotic activity
relative effectiveness in liquid culture MIC experiments [2]: less effective against certain bacteria

C/C=C(C)/C=C(\C)CC(C)C1OC(=O)/C(C)=C/c2csc(n2)C(CO)C(O)CC(O)/C=C/C=C\CC(O)C1O (centres unmarked) [thuggacin cmc-C]
zone of inhibition at 10 µg/disc [3]: 44 mm
zone of inhibition at 10 µg/disc [4]: 44 mm
zone of inhibition at 10 µg/disc [5]: 22 mm

C/C=C(C)/C=C(\C)C(O)C(C)C(O)C(O)C1C/C=C\C=C\C(O)CC(O)C(C)c2nc(cs2)/C=C(\CCCCCC)C(=O)O1 (centres unmarked) [thuggacin A]
inhibition of oxygen consumption [6]: almost completely
oxidation of NADH and of reduced cytochrome c [7]: reduced
antibiotic activity against Mycobacterium tuberculosis [1]: antibiotic activity
concentration inhibiting growth ([1]; liquid culture, strain H375RV): ≤ 8 µg/mL
zone of inhibition at 10 µg/disc ([3]; 10 μg of compound per disc, Corynebacterium fascians, figures in parentheses indicate an incomplete inhibition): 30 mm
zone of inhibition at 10 µg/disc ([4]; 10 μg of compound per disc): 29 mm
zone of inhibition at 10 µg/disc ([5]; 10 μg of compound per disc, Mycobacterium phlei): 20 mm
stability in aqueous solution [8]: not stable
time to equilibrium of thuggacin A, thuggacin B and thuggacin C ([8]; starting from 8 mg/mL thuggacin A, aqueous composition optionally including methanol (FIG. 1: methanol)): approximately 96 hours
relative effectiveness in liquid culture MIC experiments [2]: most effective
IC50 [9]: 4 µg/mL (≈ 6.33 µM)

C/C=C(C)/C=C(\C)CC(C)C(O)C(O)C1C/C=C\C=C\C(O)CC(O)C(CO)c2nc(cs2)/C=C(\C)C(=O)O1 (centres unmarked) [thuggacin cmc-A]
zone of inhibition at 10 µg/disc [3]: 47 mm
zone of inhibition at 10 µg/disc [4]: 46 mm
zone of inhibition at 10 µg/disc [5]: 24 mm
relative effectiveness in liquid culture MIC experiments [2]: most effective

C/C=C(C)/C=C(\C)C(O)C(C)C(O)C1OC(=O)/C(CCCCCC)=C/c2csc(n2)C(C)C(O)CC(O)/C=C/C=C\CC1O (centres unmarked) [thuggacin B]
antibiotic activity against Mycobacterium tuberculosis [1]: antibiotic activity
stability in aqueous solution [8]: not stable
relative effectiveness in liquid culture MIC experiments [2]: most effective
IC50 [9]: 8 µg/mL (≈ 12.7 µM)
